These results are taken from patent publication US6147121A, “Skin toning by stimulating collagen synthesis/proliferation of dermal fibroblasts” (Societe L'Oreal S.A., priority 1998, dated 2000).

Assay [1] relates to interstitial collagenase (A2058 cells). Put plainly: effect of resveratrol on the production of interstitial collagenase in a culture of A2058 cells (Elisa). Format: cell-based, human. As for the experimental part:
Effect of resveratrol on the expression of the collagenases:
The effect of resveratrol on the production of interstitial collagenase was evaluated in a model of culture of A2058 cells (derived from human malanomas: Templeton N. S. et al., Cancer Res., SO.- 54315431(1990)).
The cells were incubated in a phenol red-free MEM medium containing amino acids at the concentration of 2 mM, sodium pyruvate at the concentration of 1 mM and 10% charcoal-treated calf serum. They were then cultured at the density of 20,000 cells per well in the 24 wells of a multiwell plate.
Twenty-four hours after cultering, the cells were contacted with resveratrol. The production of interstitial collagenase was evaluated 96 hours later in the culture medium. This was carried out with the aid of an Elisa kit (Biotrack human MMPL; Amersham).
The resveratrol was tested at the concentrations 2×10^-7 M and 2×10^-6 M.
The results, expressed as percentages, represent the reduction in the production of interstitial collagenase compared with the control, namely, compared with a culture carried out under the same conditions in the absence of resveratrol.

Assay [2] has as its system normal human dermal fibroblast cultures. In words: effect of resveratrol on the proliferation of the fibroblasts of the dermis: incorporation of radioactive thymidine into normal human dermal fibroblast cultures. Type of assay: cell-based. The following applies: for tritiated thymidine incorporated (cpm): 48 hours contact, labelling 24 hours, not treated 13,649 cpm. As for the experimental part: Investigating the effect of resveratrol on the proliferation of the fibroblasts of the dermis:
This study was carried out by measuring the incorporation of radioactive thymidine into normal human dermal fibroblast cultures.
The fibroblast cultures were conducted according to conventional cell culture techniques, namely in MEM/M199 medium marketed by Gibco, in the presence of sodium bicarbonate (1.87 mg/ml), of L-glutamine (2 mM), of penicillin (50 IU/ml) and of 10% fetal calf serum (Gibco).
The test was carried out on 80% confluent cell cultures in a 24-well plate. Resveratrol, at the concentration of 1.25 mM and 5 mM, was placed in contact with the cells for 48 hours. The labelling with tritiated thymidine ([methyl-^3 H]thymidine marketed by Amersham, 82 Ci/mmol) was conducted for 24 hours.
The amount of tritiated thymidine incorporated was measured at the end of the test by acid precipitation of the proteins on filters and liquid scintillation counting.
The results were evaluated relative to a control consisting of cells which were not treated with resveratrol.
A positive control (fetal calf serum at 20%) known to stimulate the […] was included in the test as a reference.

For assay [3] the test system is unchanged. Put plainly: effect of resveratrol on the synthesis of collagen: incorporation of tritiated proline into newly synthesized proteins of normal human dermal fibroblast cultures. Format: cell-based. On the set-up: unit of the concentration uncertain. Particulars: 48 hours contact, labelling 24 hours, not treated 22,528 cpm. As to the method: (§1) Investigating the effect of resveratrol on the synthesis of collagen: This study was carried out by measuring the incorporation of radioactive proline into the proteins newly synthesized by normal human dermal fibroblast cultures. These newly synthesized proteins were predominantly collagen fibers. The fibroblast cultures were conducted according to conventional cell culture techniques, namely, in MEM/M199 medium marketed by Gibco, in the presence of sodium bicarbonate (1.87 mg/ml), of L-glutamine (2 mM), of penicillin (50 IU/ml) and of 10% fetal calf serum (Gibco). The test was carried out on 80% confluent cell cultures in a 24-well plate. […] The labelling with tritiated proline (L-[2,3-^3 H]proline marketed by Amersham, 33 mCi/ml) was conducted for 24 hours. The amount of tritiated proline incorporated was measured at the end of the test by acid precipitation of the proteins on filters and liquid scintillation counting. The results were evaluated relative to a control consisting of cells which were not treated with resveratrol. A positive control (vitamin C at 20 mg/ml) known to stimulate the synthesis of collagen was included in the test as a reference.

Assay [4] has the same test system. Described as above. Format: cell-based. As for the experimental part: as §1
Assay [5] shares this test system. The description is as above. Type of assay: cell-based. Set-up: dose or concentration left out as unconfirmed. The following applies: positive control; not treated 22,528 cpm. As to the method: as §1

The term inhibition denotes how much of the control response was suppressed.

With `Oc1ccc(C=Cc2cc(O)cc(O)c2)cc1` [Resveratrol, 3,4',5-trihydroxystilbene], the inhibition at 0.2 µM in assay [1] (Homo sapiens, 0.2 μM, 96 hours, A2058 cells, read-out: % inhibition (reduction in the production of interstitial collagenase compared with the control)) was 14%. Also, the inhibition at 2 µM in assay [1] (Homo sapiens, 2 μM, 96 hours, A2058 cells, read-out: % inhibition (reduction in the production of interstitial collagenase compared with the control)) stood at 57%. The “production of interstitial collagenase by A2058 cells (in words)” value in assay [1] (conclusion from Table III) was “reduced the production of interstitial collegenase by the A 2058 cells and this in a dose-dependent manner”. Further, the entries for the “tritiated thymidine incorporated (cpm)” value in assay [2] (1.25 mM) and in assay [2] (5.00 mM) were 15,055 cpm and 19,229 cpm, respectively. The activity at 1250 µM in assay [2] (Homo sapiens, Fibroblast, 1.25 mM, 48 hours, not treated = 100, p <0.05, read-out: tritiated thymidine incorporated, % relative to not treated control) came to 110%; in assay [4] (Homo sapiens, Fibroblast, 1.25 mM, 48 hours, not treated = 100, p <0.01, read-out: tritiated proline incorporated, % relative to not treated control), 121%. Besides, the activity at 5000 µM is 141% in assay [2] (Homo sapiens, Fibroblast, 5.00 mM, 48 hours, not treated = 100, p <0.01, read-out: tritiated thymidine incorporated, % relative to not treated control) and 114% in assay [4] (Homo sapiens, Fibroblast, 5.00 mM, 48 hours, not treated = 100, p <0.05, read-out: tritiated proline incorporated, % relative to not treated control). In addition, the “tritiated proline incorporated (cpm)” value in assay [3] (1.25 (unit uncertain)) is listed as 27,164 cpm; in assay [3] (5.00 (unit uncertain)), 25,769 cpm. Moreover, the “incorporation of proline into collagen (in words)” value in assay [4] (conclusion from Table I) is “substantially stimulated the incorporation of proline into collagen”.
For the compound `O=C1O[C@H]([C@@H](O)CO)C(O)=C1O` [Vitamin C, reference compound], in assay [5], the “tritiated proline incorporated (cpm)” value is reported as 36,431 cpm. In assay [4] (Homo sapiens, Fibroblast, 48 h, positive control, 20 mg/ml, not treated = 100, p <0.01, read-out: tritiated proline incorporated, % relative to not treated control), the activity at 20000 µg/mL stood at 162%.
